# Measured values as given in article PMC10258794, “To Fold or Not to Fold: Diastereomeric Optimization of an α-Helical Antimicrobial Peptide” (Journal of Medicinal Chemistry, 2023).
# Read-outs that look alike come from different tables or passages of the source.
# Columns and labels:
# [1] = test system: Stenotrophomonas maltophilia; assay: microbe, parasite or virus in culture; type: cell-based; conditions: pH 7.4
# Description: (§1) Antimicrobial activity was determined for all peptides on E. coli W3110, P. aeruginosa PAO1, A. baumannii ATCC19606, K. pneumoniae NCTC418, and methicillin-resistant S. aureus COL and for selected peptides on P. aeruginosa PA14 and the polymyxin B-resistant derivatives PA14 4.13, PA14 4.18, and PA14 2P4 as well as the clinical isolates ZEM-1A and ZEM9A, K. pneumoniae OXA-48, Enterobacter cloacae, Stenotrophomonas maltophilia, B. cenocepacia, and Staphylococus epidermis. To determine the MIC, the broth microdilution method was used.[75] A single bacterial colony was grown in LB medium overnight at 37 °C and 180 rpm shaking. The compounds were prepared as stock solutions of 2 mg/mL in sterilized milliQ deionized water, added to the first well of 96-well sterile, polypropylene round-bottom microtiter plates (TPP, untreated, Corning Incorporated, Kennebunk, USA), and diluted serially by 1/2. […] The bacterial inoculum was prepared by measuring the absorbance of the overnight culture, which was diluted to concentration of the bacteria was quantified by measuring absorbance at 600 nm and diluted to an OD600 of 0.022 in MH medium pH 7.4 (Sigma-Aldrich, Buchs, Switzerland). The sample solutions (150 μL) were mixed with 4 μL of diluted bacterial suspension with a final inoculation of about 5 × 10^5 CFU. For each test, two columns of the plate were kept for sterility control (MH medium only) and growth control (MH medium with bacterial inoculum, no compound). […] The plates were incubated at 37 °C for 16–20 h under static conditions. 15 μL of 3-(4,5-dimethylthiazol-2-yl)-2,5-diphenyltetrazolium bromide (MTT)[76] (1 mg/mL in sterilized milliQ deionized water) was added to each well, and the plates were incubated at room temperature until MTT staining was completed. The MIC was defined as the lowest concentration of the dendrimer that inhibits the visible growth of the tested bacteria (yellow) with the unaided eye.
# [2] = test system: S. aureus Newman; conditions: for MIC S. aureus Newman: MH broth pH 7.4, 16–20 h, 37 °C; for MIC S. aureus Newmann: supplementary CSV
# [3] = test system: S. aureus COL MRSA; conditions: for MIC S. aureus COL MRSA: MH broth pH 7.4, 16–20 h, 37 °C; for MIC S. aureus COL: supplementary CSV, ranges of Table 1 given as one number
# In short: (§2)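 A colony was grown overnight in LB at 37 °C, diluted in MH medium pH 7.4 to OD600 0.022 and added to 1/2 serial dilutions of compound (final about 5 × 10^5 CFU).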
# [4] = test system: P. aeruginosa PAO1
# In short: as §2
# [5] = test system: K. pneumoniae NCTC418
# In short: as §2
# [6] = test system: E. coli W3110
# In short: as §2
# [7] = test system: A. baumannii ATCC19606
# In short: as §2
# [8] = test system: A549 cells; assay: Alamar blue cytotoxicity, A549; type: cell-based, human; conditions: 24 h, mean ± SD, n = 3, read-out: Toxicity on A549 lung cancern cells
# Description: (§3) The A549 human lung adenocarcinoma cells are derived from a patient and were kindly given to us by Dr. Georgia Konstatinidou (Pharmacology Institute, Bern University). HEK293T cells were obtained from ATCC (CRL-11268). A549 and HEK293 were cultured in an incubator at 37 °C with 5% CO2 in RPMI-1640 (Gibco) and DMEM (Gibco) containing 10% fetal bovine serum (Thermo Fisher), 100 I.U./mL penicillin, and 100 μg/mL streptomycin (Gibco).
# (§4) The viability of the cells was assessed with an AlamarBlue assay (ThermoFisher). Cells were seeded into 96-well plates, 4000 cells/well (HEK293) and 8000 cells/well (A549), the day before the experiment. Cells were then treated with the increasing concentration of the compound and incubated for 24 h at 37 °C in the presence of 5% CO2. The next day, the medium was removed and replaced by a 10% AlamarBlue solution in full growth medium (DMEM or RPMI-1640). The cells were incubated for 3–5 h at 37 °C with 5% CO2 in a humidified atmosphere. The fluorescence was then measured on a Tecan Infinite M1000 Pro plate reader at λex 560 nm and λem 590 nm. The value was normalized according to the untreated cells.
# [9] = test system: K. pneumoniae Oxa-48; assay: MIC broth microdilution, K. pneumoniae Oxa-48; type: cell-based, Klebsiella pneumoniae; conditions: MDR strain; MH broth pH 7.4, 16–20 h, 37 °C
# Description: as §1
# [10] = test system: HEK293 cells; assay: Alamar blue cytotoxicity, HEK293; type: cell-based, human; conditions: 24 h, mean ± SD, n = 3, read-out: Toxicity on HEK293 cells
# Description: as §3, §4
# [11] = test system: Staphylococcus epidermis; assay: MIC broth microdilution, Staphylococcus epidermis; type: cell-based; conditions: pH 7.4
# Description: as §1
# [12] = test system: P. aeruginosa ZEM9A; assay: microbe, parasite or virus in culture; type: cell-based, Pseudomonas aeruginosa; conditions: pH 7.4
# Description: as §1
# [13] = test system: PA14 4.18 (pmrB); assay: microbe, parasite or virus in culture; conditions: supplementary CSV
# Description: as §1
# [14] = test system: PA14 4.13 (phoQ); assay: microbe, parasite or virus in culture; conditions: supplementary CSV
# Description: as §1
# [15] = test system: P. aeruginosa PA14; assay: microbe, parasite or virus in culture; conditions: for MIC PA14: MH broth pH 7.4, 16–20 h, 37 °C; for MIC P. aeruginosa PA14: supplementary CSV
# Description: as §1
# [16] = test system: PA14 2P4 (pmrB); assay: microbe, parasite or virus in culture; conditions: supplementary CSV
# Description: as §1
# [17] = test system: Burkolderia cenocepacia; assay: microbe, parasite or virus in culture; conditions: for MIC Burkolderia cenocepacia: MDR strain, MH broth pH 7.4, 16–20 h, 37 °C; for MIC B. cenocepacia: supplementary CSV
# Description: as §1
# [18] = test system: P. aeruginosa ZEM-1A; assay: microbe, parasite or virus in culture; conditions: pH 7.4
# Description: as §1
# [19] = test system: Enterobacter cloacae; assay: microbe, parasite or virus in culture; conditions: pH 7.4
# Description: as §1
# [20] = MH broth pH 7.4, 16–20 h, 37 °C
# [21] = supplementary CSV, ranges of Table 1 given as one number
structure (smiles),measurement,setting,value
CC(C)C[C@H](NC(=O)[C@H](CC(C)C)NC(=O)[C@H](CC(C)C)NC(=O)[C@H](CCCCN)NC(=O)[C@H](CC(C)C)NC(=O)[C@H](CC(C)C)NC(=O)[C@H](CCCCN)NC(=O)[C@H](CC(C)C)NC(=O)[C@H](CC(C)C)NC(=O)[C@H](CCCCN)NC(=O)[C@@H](N)CCCCN)C(N)=O [ln65],MIC Stenotrophomonas maltophilia,[1],2 mg/L
same,MIC S. aureus Newman,[2],2 mg/L
same,MIC S. aureus Newmann,[2],2 mg/L
same,MIC S. aureus COL MRSA,[3],4 mg/L
same,MIC S. aureus COL,[3],4 mg/L
same,MIC P. aeruginosa PAO1,[4]; [20],2 to 4 mg/L
same,MIC P. aeruginosa PAO1,[4]; [21],3 mg/L
same,MIC K. pneumoniae NCTC418,[5]; [20],4 mg/L
same,MIC K. pneumoniae NCTC418,[5]; [21],4 mg/L
same,MIC E. coli W3110,[6]; [20],4 mg/L
same,MIC A. baumannii ATCC19606,[7]; [20],2 to 4 mg/L
same,MIC A. baumannii ATCC19606,[7]; [21],3 mg/L
same,IC50,[8],20 ± 0.9 µM
same,MIC K. pneumoniae Oxa-48,[9],2 mg/L
same,IC50,[10],27 ± 5.4 µM
same,MIC Staphylococcus epidermis,[11],2 mg/L
same,MIC ZEM9A,[12],4 mg/L
same,MIC P. aeruginosa PA14 4.18,[13],32 mg/L
same,MIC P. aeruginosa PA14 4.13,[14],4 mg/L
same,MIC PA14,[15],2 to 4 mg/L
same,MIC P. aeruginosa PA14,[15],3 mg/L
same,MIC P. aeruginosaPA14 2P4,[16],32 mg/L
same,MIC Burkolderia cenocepacia,[17],>64 mg/L
same,MIC B. cenocepacia,[17],> 64 mg/L
same,MIC ZEM-1A,[18],4 mg/L
same,MIC Enterobacter cloacae,[19],2 mg/L
"CC(C)C[C@H](NC(=O)[C@H](CC(C)C)NC(=O)[C@H](CC(C)C)NC(=O)[C@@H](CCCCN)NC(=O)[C@H](CC(C)C)NC(=O)[C@H](CC(C)C)NC(=O)[C@@H](CCCCN)NC(=O)[C@H](CC(C)C)NC(=O)[C@H](CC(C)C)NC(=O)[C@@H](CCCCN)NC(=O)[C@H](N)CCCCN)C(N)=O [ln69, kkLLkLLkLLL]",MIC Stenotrophomonas maltophilia,[1],2 mg/L
same,MIC S. aureus Newman,[2],8 mg/L
same,MIC S. aureus Newmann,[2],8 mg/L
same,MIC S. aureus COL MRSA,[3],16 mg/L
same,MIC S. aureus COL,[3],16 mg/L
same,MIC P. aeruginosa PAO1,[4]; [20],8 mg/L
same,MIC P. aeruginosa PAO1,[4]; [21],8 mg/L
same,MIC K. pneumoniae NCTC418,[5]; [20],8 mg/L
same,MIC K. pneumoniae NCTC418,[5]; [21],8 mg/L
same,MIC E. coli W3110,[6]; [20],4 mg/L
same,MIC A. baumannii ATCC19606,[7]; [20],2 to 4 mg/L
same,MIC A. baumannii ATCC19606,[7]; [21],3 mg/L
same,IC50,[8],21 ± 3.3 µM
same,MIC K. pneumoniae Oxa-48,[9],4 mg/L
same,IC50,[10],45 ± 8.9 µM
same,MIC Staphylococcus epidermis,[11],4 mg/L
same,MIC ZEM9A,[12],8 mg/L
same,MIC P. aeruginosa PA14 4.18,[13],16 mg/L
same,MIC P. aeruginosa PA14 4.13,[14],4 mg/L
same,MIC PA14,[15],2 mg/L
same,MIC P. aeruginosa PA14,[15],2 mg/L
same,MIC P. aeruginosaPA14 2P4,[16],32 mg/L
same,MIC Burkolderia cenocepacia,[17],>64 mg/L
same,MIC B. cenocepacia,[17],> 64 mg/L
same,MIC ZEM-1A,[18],2 mg/L
same,MIC Enterobacter cloacae,[19],4 mg/L
"CC(C)C[C@H](NC(=O)[C@H](CC(C)C)NC(=O)[C@H](CC(C)C)NC(=O)[C@H](CCCCN)NC(=O)[C@H](CC(C)C)NC(=O)[C@H](CC(C)C)NC(=O)[C@H](CCCCN)NC(=O)[C@@H](CC(C)C)NC(=O)[C@H](CC(C)C)NC(=O)[C@@H](CCCCN)NC(=O)[C@@H](N)CCCCN)C(N)=O [HP4, KkLlKLLKLLL]",MIC Stenotrophomonas maltophilia,[1],2 mg/L
same,MIC S. aureus Newman,[2],2 mg/L
same,MIC S. aureus Newmann,[2],2 mg/L
same,MIC S. aureus COL MRSA,[3],2 to 4 mg/L
same,MIC S. aureus COL,[3],3 mg/L
same,MIC P. aeruginosa PAO1,[4]; [20],2 to 4 mg/L
same,MIC P. aeruginosa PAO1,[4]; [21],3 mg/L
same,MIC K. pneumoniae NCTC418,[5]; [20],2 mg/L
same,MIC K. pneumoniae NCTC418,[5]; [21],2 mg/L
same,MIC E. coli W3110,[6]; [20],2 to 4 mg/L
same,MIC E. coli W3110,[6]; [21],3 mg/L
same,MIC A. baumannii ATCC19606,[7]; [20],2 to 4 mg/L
same,MIC A. baumannii ATCC19606,[7]; [21],3 mg/L
same,IC50,[8],4.6 ± 4.9 µM
same,MIC K. pneumoniae Oxa-48,[9],2 mg/L
same,IC50,[10],43.7 ± 0.8 µM
same,MIC Staphylococcus epidermis,[11],2 mg/L
same,MIC ZEM9A,[12],4 mg/L
same,MIC P. aeruginosa PA14 4.18,[13],32 mg/L
same,MIC P. aeruginosa PA14 4.13,[14],4 mg/L
same,MIC PA14,[15],2 mg/L
same,MIC P. aeruginosa PA14,[15],2 mg/L
same,MIC P. aeruginosaPA14 2P4,[16],64 mg/L
same,MIC Burkolderia cenocepacia,[17],>64 mg/L
same,MIC ZEM-1A,[18],2 mg/L
same,MIC Enterobacter cloacae,[19],2 mg/L
